This note sets out measurements from patent US20260049088A1, “TRICYCLIC HETEROCYCLIC DERIVATIVES, COMPOSITIONS AND USES THEREOF” (Danatlas Pharmaceuticals Co., Ltd., priority 2023, published 2026).

For this assay, the target named is T1, hPARG (Homo sapiens, UniProt Q86W56).
T1 construct: made in house; host or cells: E. coli
T1 sequence (Q86W56 whole entry): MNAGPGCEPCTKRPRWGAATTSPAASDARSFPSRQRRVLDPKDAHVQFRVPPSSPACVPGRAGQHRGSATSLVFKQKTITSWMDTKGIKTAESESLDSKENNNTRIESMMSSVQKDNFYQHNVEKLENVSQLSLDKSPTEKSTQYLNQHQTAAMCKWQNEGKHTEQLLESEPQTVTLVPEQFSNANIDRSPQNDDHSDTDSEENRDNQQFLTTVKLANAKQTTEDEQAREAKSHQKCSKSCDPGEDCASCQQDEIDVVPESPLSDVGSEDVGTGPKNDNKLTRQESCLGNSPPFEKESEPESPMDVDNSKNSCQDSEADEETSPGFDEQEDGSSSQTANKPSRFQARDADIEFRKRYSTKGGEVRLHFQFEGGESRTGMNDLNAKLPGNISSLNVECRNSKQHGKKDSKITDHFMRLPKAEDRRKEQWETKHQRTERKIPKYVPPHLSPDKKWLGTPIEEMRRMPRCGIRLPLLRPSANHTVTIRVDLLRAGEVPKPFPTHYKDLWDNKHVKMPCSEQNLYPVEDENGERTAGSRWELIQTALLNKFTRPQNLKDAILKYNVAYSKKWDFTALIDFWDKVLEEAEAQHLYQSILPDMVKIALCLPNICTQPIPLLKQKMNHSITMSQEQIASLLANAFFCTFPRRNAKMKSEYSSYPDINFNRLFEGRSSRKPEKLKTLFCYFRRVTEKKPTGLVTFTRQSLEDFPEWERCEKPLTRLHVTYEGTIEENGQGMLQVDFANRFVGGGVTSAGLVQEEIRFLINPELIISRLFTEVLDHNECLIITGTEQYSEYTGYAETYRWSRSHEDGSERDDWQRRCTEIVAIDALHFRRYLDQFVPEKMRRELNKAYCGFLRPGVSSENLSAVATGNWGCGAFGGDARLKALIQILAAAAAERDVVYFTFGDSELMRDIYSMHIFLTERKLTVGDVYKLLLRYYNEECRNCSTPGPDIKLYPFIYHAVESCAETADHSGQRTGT
Nature of the assay: PARG enzymatic activity assay (HTRF). In kind it is biochemical. The settings on record: C-terminal His6-tag hPARG 65 pM, biotinylated-NAD ribosylated PARP1 substrate 8 nM. As for the experimental part: HTRF assay was used to measure the ability of compounds to inhibit the activity of […] in vitro. C-terminal His6—tag PARG expressed in E. coli was purified and stored at −80° C. in aliquots. Assay measurements were performed with 1×buffer comprising 50 mM Tris pH 7.4, 0.1 mg/mL BSA, 3 mM EDTA, 0.4 mM EGTA, 1 mM DTT, 50 mM KCl and 0.01% Tween 20. Compounds dissolved in DMSO were plated into a 384-well assay plate (PerkinElmer, Catalog #: 6008280) in duplicate using a dispenser (Labcyte, Echo 665), and tested on a 10-point 4-fold serial dilution. Add 5 μL Enzyme mix [hPARG (C-terminal His6—tag, 4.2 μM), 65 pM final] to the test wells. The plates were covered and left to incubate for 60 minutes at RT before the addition of 5 μL substrate mix [biotinylated-NAD ribosylated PARP1 (6.1 μM), 8 nM final] to initiate reaction. After incubating 10 minutes at RT, add 2.5 μL Streptavidin-Eu cryptate (Cisbio, Catalog #: 610SAKLA) and 2.5 μL Mab anti 6HIS-XL665 (Cisbio, Catalog #: 61HISXLA) to the plate, and incubate for 60 minutes at RT. Read on a multimode plate reader (PerkinElmer, Envision 2015) in time-resolved fluorescence (TRF) mode, with excitation at 337 nm and emission at both 620 nm and 665 nm. Average HTRF signal of high control (Wells with 1% DMSO) was calculated and as Vehicle Control (VC). Average HTRF signal of low control (no Enzyme) was calculated and as Positive control (PC).
IC50 values were determined by fitting the data to the standard 4 parameters with Hill Slope using GraphPad Prism software.
(Time-resolved FRET reads energy transfer from a long-lived donor to a nearby acceptor.)
For orientation: IC50 means the point on the concentration scale where inhibition reaches its midpoint. Regarding `CCN(CCN1CCOCC1)c1ncnc2c1c1ccc(S(=O)(=O)NC3(C#N)CC3)cc1n2-c1nnc(C(F)F)s1` [Example 18, N-(1-Cyanocyclopropyl)-9-(5-(difluoromethyl)-1,3,4-thiadiazol-2-yl)-4-(ethyl(2-morpholinoethyl)amino)-9H-pyrimido [4,5-b]indole-7-sulfonamide], the IC50 is no more than 100 nM.

As for `CN(C[C@H]1COCCN1C)c1ncnc2c1c1ccc(S(=O)(=O)NC3(C#N)CC3)cc1n2-c1nnc(C(F)F)s1` [Example 66, (S)-N-(1-Cyanocyclopropyl)-9-(5-(difluoromethyl)-1,3,4-thiadiazol-2-yl)-4-(methyl((4-methylmorpholin-3-yl)methyl)amino)-9H-pyrimido[4,5-b]indole-7-sulfonamide], the IC50 is no more than 100 nM.

Regarding `N#CC1(NS(=O)(=O)c2ccc3c4c(OCCn5cccn5)ncnc4n(-c4nnc(C(F)F)s4)c3c2)CC1` [Example 12, 4-(2-(1H-Pyrazol-1-yl)ethoxy)-N-(1-cyanocyclopropyl)-9-(5-(difluoromethyl)-1,3,4-thiadiazol-2-yl)-9H-pyrimido[4,5-b]indole-7-sulfonamide], the IC50 was no more than 100 nM.

As to `CN1CCN(c2ncnc3c2c2ccc(S(=O)(=O)NC4(C#N)CC4)cc2n3-c2nnc(C(F)F)s2)C[C@@H]1CO` [Example 43, (R)-N-(1-Cyanocyclopropyl)-9-(5-(difluoromethyl)-1,3,4-thiadiazol-2-yl)-4-(3-(hydroxymethyl)-4-methylpiperazin-1-yl)-9H-pyrimido[4,5-b]indole-7-sulfonamide], the IC50 is no more than 100 nM.

`CN(C)C(=O)COc1ncnc2c1c1ccc(S(=O)(=O)NC3(C#N)CC3)cc1n2-c1nnc(C(F)F)s1` [Example 6, 2-((7-(N-(1-Cyanocyclopropyl)sulfamoyl)-9-(5-(difluoromethyl)-1,3,4-thiadiazol-2-yl)-9H-pyrimido[4,5-b]indol-4-yl)oxy)-N,N-dimethylacetamide]: the IC50 fell in the range of 100 to 1000 nM.

In the case of `N#CC1(NS(=O)(=O)c2ccc3c4c(O[C@H]5CCOC5)ncnc4n(-c4nnc(C(F)F)s4)c3c2)CC1` [Example 7, (S)-N-(1-Cyanocyclopropyl)-9-(5-(difluoromethyl)-1,3,4-thiadiazol-2-yl)-4-((tetrahydrofuran-3-yl)oxy)-9H-pyrimido[4,5-b]indole-7-sulfonamide], the IC50 was no more than 100 nM.

Take `N#CC1(NS(=O)(=O)c2ccc3c4c(N5CCC(N6CCC(F)(F)CC6)[C@@H](F)C5)ncnc4n(-c4nnc(C(F)F)s4)c3c2)CC1` (stereo partly drawn) [Example 36, N-(1-Cyanocyclopropyl)-9-(5-(difluoromethyl)-1,3,4-thiadiazol-2-yl)-4-((3′S)-3′,4,4-trifluoro-[1,4′-bipiperidin]-1′-yl)-9H-pyrimido[4,5-b]indole-7-sulfonamide]: the IC50 is no more than 100 nM.

With `N#CC1(NS(=O)(=O)c2ccc3c4c(OCCN5CCCS5(=O)=O)ncnc4n(-c4nnc(C(F)F)s4)c3c2)CC1` [Example 91, N-(1-Cyanocyclopropyl)-9-(5-(difluoromethyl)-1,3,4-thiadiazol-2-yl)-4-(2-(1,1-dioxidoisothiazolidin-2-yl)ethoxy)-9H-pyrimido[4,5-b]indole-7-sulfonamide], the IC50 was no more than 100 nM.

The compound `CC(C)(O)C#Cc1ncnc2c1c1ccc(S(=O)(=O)NC3(C#N)CC3)cc1n2-c1nnc(C(F)F)s1` [Example 88, N-(1-Cyanocyclopropyl)-9-(5-(difluoromethyl)-1,3,4-thiadiazol-2-yl)-4-(3-hydroxy-3-methylbut-1-yn-1-yl)-9H-pyrimido[4,5-b]indole-7-sulfonamide] displayed an IC50 of no more than 100 nM.

Consider `CN(CCn1ccnc1)c1ncnc2c1c1ccc(S(=O)(=O)NC3(C#N)CC3)cc1n2-c1nnc(C(F)F)s1` [Example 59, 4-((2-(1H-Imidazol-1-yl)ethyl)(methyl)amino)-N-(1-cyanocyclopropyl)-9-(5-(difluoromethyl)-1,3,4-thiadiazol-2-yl)-9H-pyrimido[4,5-b]indole-7-sulfonamide], for which the IC50 fell in the range of 100 to 1000 nM.

`CN(CCCN1CCOCC1)c1ncnc2c1c1ccc(S(=O)(=O)NC3(C#N)CC3)cc1n2-c1nnc(C(F)F)s1` [Example 17, N-(1-Cyanocyclopropyl)-9-(5-(difluoromethyl)-1,3,4-thiadiazol-2-yl)-4-(methyl(3-morpholinopropyl)amino)-9H-pyrimido[4,5-b]indole-7-sulfonamide] had an IC50 of no more than 100 nM.

`CCN(CC)[C@H]1CCN(c2ncnc3c2c2ccc(S(=O)(=O)NC4(C#N)CC4)cc2n3-c2nnc(C(F)F)s2)C[C@H]1F` [Example 34, N-(1-Cyanocyclopropyl)-4-((3R,4S)-4-(diethylamino)-3-fluoropiperidin-1-yl)-9-(5-(difluoromethyl)-1,3,4-thiadiazol-2-yl)-9H-pyrimido[4,5-b]indole-7-sulfonamide] registered an IC50 of no more than 100 nM.

Compound `CN(CC(=O)N1CCOCC1)c1ncnc2c1c1ccc(S(=O)(=O)NC3(C#N)CC3)cc1n2-c1nnc(C(F)F)s1` [Example 20, N-(1-Cyanocyclopropyl)-9-(5-(difluoromethyl)-1,3,4-thiadiazol-2-yl)-4-(methyl(2-morpholino-2-oxoethyl)amino)-9H-pyrimido[4,5-b]indole-7-sulfonamide] gave an IC50 of no more than 100 nM.

`C[C@H]1CN(c2ncnc3c2c2ccc(S(=O)(=O)NC4(C#N)CC4)cc2n3-c2nnc(C(F)F)s2)C[C@H](C)N1` [Example 94, N-(1-Cyanocyclopropyl)-9-(5-(difluoromethyl)-1,3,4-thiadiazol-2-yl)-4-((3S,5S)-3,5-dimethylpiperazin-1-yl)-9H-pyrimido[4,5-b]indole-7-sulfonamide]: the IC50 was no more than 100 nM.

On to `N#CC1(NS(=O)(=O)c2ccc3c4c(N5CCn6ncnc6C5)ncnc4n(-c4nnc(C(F)F)s4)c3c2)CC1` [Example 49, N-(1-Cyanocyclopropyl)-9-(5-(difluoromethyl)-1,3,4-thiadiazol-2-yl)-4-(5,6-dihydro-[1,2,4]triazolo[1,5-a]pyrazin-7(8H)-yl)-9H-pyrimido[4,5-b]indole-7-sulfonamide], for which the IC50 is no more than 100 nM.

Compound `CN(C[C@@H]1COCCN1C)c1ncnc2c1c1ccc(S(=O)(=O)NC3(C#N)CC3)cc1n2-c1nnc(C(F)F)s1` [Example 65, (R)-N-(1-Cyanocyclopropyl)-9-(5-(difluoromethyl)-1,3,4-thiadiazol-2-yl)-4-(methyl((4-methylmorpholin-3-yl)methyl)amino)-9H-pyrimido[4,5-b]indole-7-sulfonamide] showed an IC50 of no more than 100 nM.

The compound `N#CC1(NS(=O)(=O)c2ccc3c4c(N5CCn6cncc6C5)ncnc4n(-c4nnc(C(F)F)s4)c3c2)CC1` [Example 45, N-(1-Cyanocyclopropyl)-9-(5-(difluoromethyl)-1,3,4-thiadiazol-2-yl)-4-(5,6-dihydroimidazo[1,5-a]pyrazin-7(8H)-yl)-9H-pyrimido[4,5-b]indole-7-sulfonamide] came in with an IC50 of no more than 100 nM.

For `CN(CCN1CCOCC1)c1ncnc2c1c1ccc(S(=O)(=O)NC3(C#N)CC3)cc1n2-c1nnc(C(F)F)s1` [Example 13, N-(1-cyanocyclopropyl)-9-(5-(difluoromethyl)-1,3,4-thiadiazol-2-yl)-4-(methyl(2-morpholinoethyl)amino)-9H-pyrimido[4,5-b]indole-7-sulfonamide], the IC50 was no more than 100 nM.
